Read-outs that look alike come from different tables or passages of the source.
What was measured:
Sclerotinia sclerotiorum = assay: Antifungal effect against Sclerotinia sclerotiorum infection on wounded skin of broad bean pods (rot area, Colby synergy); assay type: in vivo; conditions: natamycin-insecticide 15-0 ppm
Source text: (§1) The Colby equation (Colby, 1967. Weeds 15:20-22) calculates the expected antifungal activity (E in %) of a combination comprising more than one active ingredients:
(§2) wherein X and Y are the observed antifungal activities (in %) of the individual active ingredients x and y, respectively. If the observed antifungal activity (O in %) of the combination exceeds the expected antifungal activity (E in %) of the combination and the synergy factor O/E is thus >1.0, the combined application of the active ingredients leads to a synergistic antifungal effect.
• 1) Control (without natamycin and lambda-cyhalothrin) • 2) Natamycin at a level of 15 ppm • 3) Lambda-cyhalothrin (in the product KARATE ZEON® of Syngenta) at a levels of 0.15 ppm, 0.6 ppm, 3 ppm and 15 ppm • 4) Natamycin at a level of 15 ppm combined with lambda-cyhalothrin at levels of 0.15 ppm, 0.6 ppm, 3 ppm or 15 ppm.
Used pathogen: Sclerotinia sclerotiorum.
(§3) Application: The broad bean pods were washed under tap water, and were subsequently surface sterilized by placing them in a 0.1% sodium hypochlorite solution for 5 minutes. The pods were then rinsed with tap water and dried. Transparent plastic containers were prepared by placing a piece of absorbing paper in the container and adding 25 ml of water, one container per treatment was used. The pods were cut in two, and two halve pods were incubated per box. The skin of broad bean pods was damaged with a needle, ø 2 mm and to a depth of about 3 mm into the fruit, with—depending on the size of the pod—2 to 4 wounds per half pod. In total, 6 wounds were incubated per treatment, of which 1 was used as a control. A volume of 20 microliter of a natamycin/insecticide composition, as presented herein above, was applied by pipette to each wound. The treatments were then left to air-dry. Once dried, a mycelium plug of Sclerotinia sclerotiorum was placed upside down on each wound, so that the mycelium was in direct contact with the wound. Per treatment 5 wounds were inoculated with the fungus, while the 6th and last wound was used as negative non-inoculated control. After inoculation, the containers were directly closed with a transparent plastic lid.
All pods were kept at room temperature (20° C.). Wounds of the pods were checked after 30 h of incubation.
Replicates: All treatments for the broad bean pod experiment were performed on two individual pod halves resulting in 5 wounds per treatment, while a sixth wound served as control.
The experiments were performed as described in Example 1.
The experiments were performed as described in Example 1. Assessment of the infection area was 23 h after inoculation. Experiment was performed in 5-fold.
The experiments were performed as described in Example 1. Thiamethoxam belongs to IRAC Group 4. Assessment of the infection area was 31 hours after inoculation. Experiment was performed in 5-fold.
The experiments were performed as described in Example 1. The product SPECTRE® of company (Adama) containing the active ingredient chlorfenapyr belonging to IRAC Group 13 was tested. Assessment of the infection area was 23 hours after inoculation. Experiment was performed in 5-fold.

Fusarium graminerum = assay type: cell-based; conditions: 6 days after inoculation
Source text: as §1, §2
Agar medium was prepared by mixing in a 100 ml Duran bottle 3.9 g of potato dextrose agar (PDA) from Carl-Roth (Carl-Roth GmbH+Co. KG, Karlsruhe, Germany) with 100 ml deionized water and autoclaving the Duran bottle at 120° C. for 15 minutes. After autoclaving, the solution was cooled by putting it in a 48° C. oven for about two hours. Afterward the semi-liquid PDA solution was carefully mixed with natamycin and/or insecticide dosages as specified in Table 5 showing the interaction results on petri dishes. The medium in the Duran bottle was divided over 5 petri dishes (90×15 mm), 20 ml per petri dish by using 25 ml serological pipets (ROTILABO®; Carl-Roth). Each natamycin and/or insecticide treatment was performed in fivefold.
Fungal spore suspensions were prepared by drenching a fully grown petri dish with sterile water. The fungus was scraped off and filtered through a Miracloth (pore size: 22-25 μm) (Merck KGaA, Darmstadt, Germany; catalogue number: 475855). The number of spores were counted with a hemocytometer and fungal suspension was adjusted to 10^6 spores per ml. Afterward, 5 μl of prepared spore suspension was pipetted on the center of the agar plate. The plates were incubated at 25° C. Measurement of the fungal growth was done using callipers at different time points. Assessment of the infection area was 6 days after inoculation.
The insecticide levels and the period after which the assessments were made are presented as specified for the different insecticides are presented in Table 5 below. Synergistic calculation was done using the Colby equation. Experiment was performed in 5-fold.
The experiments were performed as described in Example 3. The product KARATE ZEON® of company Syngenta containing the active ingredient lambda-cyhalothrin belonging to IRAC Group 3 was tested. Assessment of the infection area was 6 days after inoculation. Experiment was performed in 5-fold.

Botrytis cinerea = assay: Antifungal effect against Botrytis cinerea infection on wounded peel of banana fruits (Colby synergy); assay type: in vivo; conditions: natamycin-insecticide 1:0 ppm
Source text: as §2, §3
The infection area was measured 5 days after inoculation.
A few changes were made for the banana experiments: 5 wounds per banana were made, on each wound 40 microliter of treatments was pipetted. The treatments were then left to air-dry. Once dried, 2 microliter of a freshly prepared inoculum was pipetted on four of the wounds. The inoculum consists of […] potato dextrose broth (PDB) medium containing Botrytis cinerea spores at a concentration of 10^6 spores per ml. The fifth wound was used as negative non-inoculated control. Experiment was performed in 4-fold.
Assessment of the infection area was performed 3 days after inoculation. Experiment was performed in 4-fold.
Imidacloprid was formulated as described in Table 2. Assessment of the efficacy was 5 days after inoculation. Experiment was performed in 4-fold.

[1] = 23 h after inoculation, Table 4
[2] = 23 h after inoculation, Table 7
[3] = 23 hours after inoculation, Table 9
[4] = 30 h after inoculation, Table 3
[5] = 31 hours after inoculation, Table 8
[6] = natamycin-insecticide 0.5-0 ppm, Table 5
[7] = natamycin-insecticide 1-0 ppm, Table 10
[8] = 3 days after inoculation, Table 14A
[9] = 3 days after inoculation, Table 14B
[10] = 5 days after inoculation, Table 12A
[11] = 5 days after inoculation, Table 12B
[12] = 5 days after inoculation, Table 18A
[13] = 5 days after inoculation, Table 18B

`C[C@@H]1C/C=C/C=C/C=C/C=C/[C@H](O[C@@H]2O[C@H](C)[C@@H](O)[C@H](N)[C@@H]2O)C[C@@H]2O[C@](O)(C[C@@H](O)C[C@H]3O[C@@H]3/C=C/C(=O)O1)C[C@H](O)[C@H]2C(=O)O` [natamycin] was tested, and the Avg infected area (Sclerotinia sclerotiorum; [1]) was 104.2 mm2, the Observed antifungal activity (Sclerotinia sclerotiorum; [1]) was 33.5% and the Avg infected area (Sclerotinia sclerotiorum; [2]) was 99.9 mm2. It also gave an Observed antifungal activity (Sclerotinia sclerotiorum; [2]) of 26.9%, an Avg infected area (Sclerotinia sclerotiorum; [3]) of 66.2 mm2 and an Observed antifungal activity (Sclerotinia sclerotiorum; [3]) of 41.8%. The Avg infected area (Sclerotinia sclerotiorum; [4]) was 278.54 mm^2, the Observed antifungal activity (Sclerotinia sclerotiorum; [4]) was 11.4% and the Avg infected area (Sclerotinia sclerotiorum; [5]) was 172.7 mm2. The Observed antifungal activity (Sclerotinia sclerotiorum; [5]) was 33.1%, the Avg infected area (Fusarium graminerum; [6]) was 1054.4 mm2 and the Observed antifungal activity (Fusarium graminerum; [6]) was 7.2%. The Avg infected area (Fusarium graminerum; [7]) was 1107.7 mm2, the Observed antifungal activity (Fusarium graminerum; [7]) was 69.4% and the Avg infected area (Botrytis cinerea; [8]) was 9.2 mm2. The Observed antifungal activity (Botrytis cinerea; [8]) was 18.8%, the Avg infected area (Botrytis cinerea; [9]) was 5.5 mm2 and the Observed antifungal activity (Botrytis cinerea; [9]) was 43.9%. The Avg infected area (Botrytis cinerea; [10]) was 52.6 mm2, the Observed antifungal activity (Botrytis cinerea; [10]) was 18.0% and the Avg infected area (Botrytis cinerea; [11]) was 84.7 mm2. It also gave an Observed antifungal activity (Botrytis cinerea; [11]) of 14.3%, an Avg infected area (Botrytis cinerea; [12]) of 30.7 mm2 and an Observed antifungal activity (Botrytis cinerea; [12]) of 37.6%. For the same compound, the Avg infected area (Botrytis cinerea; [13]) was 25.9 mm2 and the Observed antifungal activity (Botrytis cinerea; [13]) was 11.6%.

From patent US20250280827A1, “An antifungal composition comprising natamycin and at least one insecticide” (priority 2021, published 2025)
